Columns and labels:
[1] = system: LGR5 expression in CRC cell lines; experiment: LGR5 expression by flow cytometry in treated CRC cell lines; format: cell-based, human; conditions: panel DLD1, HCT116, LS174t, LoVo, SW48, SW480, SW620; 1 um, 72 hrs
Description: A panel of CRC cell lines including DLD1, HCT116, LS174t, LoVo, SW48, SW480 and SW620 were treated with a PI3K/mTOR dual inhibitor (NVP) or 2 different cytotoxic agents including SN38 (active metabolite of Irinotecan) or 5FU (5 fluorouracil). Cells were treated with the above agents at 1 um and were harvested after 72 hrs. Cells were then stained with anti-LGR5 Mab conjugated to Alexa Fluor647 and the data were analyzed by flow cytometry using a FACScalibur.

[2] = system: LGR5 expression in pancreatic cell lines; experiment: LGR5 expression by flow cytometry in treated pancreatic cell lines; format: cell-based, human; conditions: panel AsPc1, HPAFII, PANC1, BxPC3, CFPAC, PANC10.05, Capan2, SW1990
Description: The pancreatic cell lines that were tested include: AsPc1, HPAFII, PANC1, BxPC3, CFPAC, PANC10.05, Capan2 and SW1990.

[3] = system: LGR5 expression in JH109, ASPC1 and PANC1 tumors; experiment: QPCR of LGR5 expression in treated pancreatic tumors; format: in vivo, mice; conditions: standard of care: Gemzar and Abraxane in JH109, Gemzar alone in PANC1 and ASPC1
Description: LGR5 expression in metastatic pancreatic patient derived xenografts was investigated using the quantitative polymerase chain reaction (QPCR). A sample of tumor tissue was flash frozen or added to a cryovial containing RNAlater (Qiagen, CA), and transferred to −70° C. after incubation at 4° C. for several hours. Total RNA was extracted using a Qiagen RNeasy extraction kit (Qiagen, CA), and cDNA was synthesized using a SuperScriptIII kit (Life Technologies, CA) and protocols provided by the manufacturer. Human LGR5 transcript abundance was measured using human specific LGR5 and GAPDH primers and the following thermal condition in the StepOne Thermocycler (Life Technologies, CA): 50° C. (2 min); 90° C. (2 min) and 40 cycles of 90° C. (15 sec) and 60° C. (1 min) and melt curve assessment (from 65° C.-95° C.). LGR5 abundance was quantified using 2^δCt equation.
LGR5 expression was investigated in a series of pancreatic tumors including JH109, ASPC1 and PANC1.

Row | SMILES | LGR5 expression (flow cytometry) [1] | LGR5 expression (flow cytometry) [2] | LGR5 expression in tumors (QPCR) [3]
1 | O=c1[nH]cc(F)c(=O)[nH]1 [5FU, 5 fluorouracil] | did not induce LGR5 expression in any of these lines | – | –
2 | CCc1c2c(nc3ccc(O)cc13)-c1cc3c(c(=O)n1C2)COC(=O)[C@]3(O)CC [SN38] | promoted LGR5 expression in HCT116, LS174t, SW48, SW480 and especially SW620 cells | – | –
3 | CC(=O)O[C@H]1C(=O)[C@@]2(C)[C@H]([C@H](OC(=O)c3ccccc3)[C@]3(O)C[C@H](OC(=O)[C@H](O)[C@@H](NC(=O)c4ccccc4)c4ccccc4)C(C)=C1C3(C)C)[C@]1(OC(C)=O)CO[C@@H]1C[C@@H]2O [taxol] | – | increased LGR5 expression in HPAFII | –
4 | Nc1ccn([C@@H]2O[C@H](CO)[C@@H](O)C2(F)F)c(=O)n1 [gemcitabine, reference compound] | – | upregulates LGR5 in PANC1 | induction in LGR5 expression

From patent US10745487B2, “Method of treating cancer by administering an anti-LGR5 monoclonal antibody” (Bionomics Limited, priority 2016, dated 2020)
